Experimental data as given in patent publication US9808004B2, “Synergistic combination to improve grape color and to alter sensory characteristics of wine” (Valent BioSciences Corporation, priority 2007, dated 2017).

Columns and labels:
[1] = test system: red table grape cultivar 'Crimson Seedless'; experiment: Replicated field experiment on Crimson Seedless table grapes: colour development (harvestable clusters), firmness, berry weight, Brix; Synergy Index; details: for Firmness: at harvest; for Cumulative harvestable clusters: foliar, veraison plus seven days, Crimson Seedless; for Effect on cumulative harvestable cluster number (in words): applied alone, dose-dependent, 88 to 877 mg/vine; for Dose acting alone which produced the end point (QA, QB): end point 24.7 cumulative harvestable clusters
Text: The vineyard was 12 years old and on overhead trellis with a vine spacing of 12 ft by 7 ft (518 vines/acre). Plot size was three vines/replicate, with six replicates/treatments. The area evaluated within each plot was one center vine and two half vines on each side for a total of two vines. Applications were made seven days after veraison (beginning of berry softening). On the day of application, red coloration was developing on about 10% of the berries. […] All treatments were mixed with the adjuvant Latron B-1956 (0.05% v/v; Dow AgroSciences LLC, Indianapolis, Ind.). Treatments were applied with a backpack mist blower at 200 gallons/acre (757 l/acre).
The total grape clusters were counted on the day of application. After treatment, the plots were evaluated weekly for color development by counting the number of harvestable colored grape clusters in each plot. All harvestable colored clusters were removed 79 days later to eliminate over-mature clusters. The number of harvestable colored grape clusters was expressed as cumulative harvestable clusters (number of harvestable clusters per two vines). Average berry firmness, weight and Brix (soluble solids) were evaluated 5 days later. Evaluation samples consisted of 10 second shoulders (second lateral branch of the main rachis) from 10 different clusters selected randomly from each plot. All berries in the evaluation samples were removed, counted, and weighed. A sub-sample of 20 to 30 berries was crushed for brix (soluble solids) analysis. Brix was measured with a handheld temperature compensating Leica Refractometer. An additional 10 berries were selected randomly for berry firmness. Berry firmness was determined by a hand held Wilson Penetrometer (0 to 1000 g) mounted on a stand with a 6 mm tip.
Synergy was determined by an industrially accepted method (Kull et al., 1961, Applied Microbiology 9:538-541 and Robertson and Ramesh, 1998, U.S. Pat. No. 5,716,629). Synergy Index=Qa/QA+Qb/QB where:
Qa=dose of compound A in mg/vine, in the mixture, which produced an end point
QA=dose of compound A in mg/vine, acting alone, which produced an end point.
Qb=[…] of compound B in mg/vine, in the mixture, which produced an end point.
QB=dose of compound B in mg/vine, acting alone, which produced an end point.
Synergy, additivity, or antagonism are shown when the Synergy Index is less than one, equal to one, or greater than one, respectively.

[2] = Quality of wine from treated Cabernet Sauvignon grapes (colour density, phenolics, tasting panel score); design: species or system grape; details: for Wine assessment: tasting panel score from 5 characteristics (color intensity, aroma intensity, body/fullness, flavor intensity, finish), 200 ppm of each compound at veraison
Method: (§1) A replicated field experiment was conducted on the red wine grape cultivar ‘Cabernet Sauvignon’ in the Riverland growing region of South Australia. The vineyard was 19 years old with a vine spacing of 3 m by 3 m. The plot size was nine vines/replicate with three replicates/treatment. […] Treatments were mixed with the adjuvant Agral 600 (10 mL/100 L v/v; CropCare Australasia, Pty Ltd.).

[3] = test system: red wine grape cultivar 'Cabernet Sauvignon'; experiment: Replicated field experiment on Cabernet Sauvignon wine grapes: grape quality at harvest; format: in vivo; details: 200 ppm of each compound applied, foliar at veraison
Method: as §1

[4] = 88 mg/vine of each compound applied
[5] = 292 mg/vine of each compound applied
[6] = 200 ppm of each compound applied, foliar at veraison, Cabernet Sauvignon

| Molecule | Firmness [1, 4] | Cumulative harvestable clusters [1, 4] | Cumulative harvestable clusters [1, 5] | Firmness ([1]; 877 mg/vine) | Cumulative harvestable clusters ([1]; 877 mg/vine) | Effect on cumulative harvestable cluster number (in words) [1] | Dose acting alone which produced the end point (QA, QB) [1] | Wine assessment [2] | Wine assessment ([2]; listed as ethephon) | Wine color density [2, 6] | Wine phenolics [2, 6] | Wine color density ([2]; 200 ppm of each compound applied, foliar at veraison, Cabernet Sauvignon, listed as ABA) | Wine assessment ([2]; listed as ABA) | Anthocyanins, grapes at harvest [3] | Anthocyanins, grapes at harvest ([3]; listed as ABA) |
| --- | --- | --- | --- | --- | --- | --- | --- | --- | --- | --- | --- | --- | --- | --- | --- |
| O=P(O)(O)CCCl [Ethephon] | 765 g | 9.2 no. per two vines | 15.7 no. per two vines | 709 g | 40.2 no. per two vines | increased | 484 mg/vine | 2.3 | did not affect |  |  |  |  |  |  |
| (S)-5-(1-hydroxy-2,6,6,-trimethyl-4-oxo-2-cyclohexen-1-yl)-3-methyl-(2Z,4E)-pentadienoic acid [S-ABA] |  | 11.8 no. per two vines | 38.0 no. per two vines |  | 43.8 no. per two vines | increased | 337 mg/vine | higher wine assessment score |  | lower than in the untreated | 20.2 | 5.6 | 2.7 | lower than in the untreated | 0.78 mg/g |
